In patent US20050250801A1, “Method of treating cancer with azaspirane compositions” (priority 2003, published 2005):
Read-outs that look alike come from different tables or passages of the source.

Legend:
CaCo-2 cells [1] = assay: Inhibition of CaCo-2 colon carcinoma cell proliferation (WST-1, Example 1); assay type: cell-based; settings: Homo sapiens, 24 hours incubation
Protocol: The effect of N,N,-diethyl-8,8-dipropyl-2-azaspiro[4,5]decane-2-propanamine dimaleate (Compound 1) on proliferation of human colon carcinoma cells T84 and CaCo-2 was evaluated in the following manner. Cell proliferation was measured by WST-1 dye conversion to Formazan assay using the proliferation kit from BioVision, CA. The procedure used was essentially as described in the manufacture's instructions. Briefly, cells were grown for 7 days until they formed semi-confluent monolayers. On day 7, cells were trypsinized and resuspended in 96-well plates at a concentration of approximately 40,000 cells/well and allowed to grow for 24 hours at 37° C.
Subsequently, fresh media containing increasing concentrations of Compound 1, as indicated in the FIG. 1, were added and assay plates were further incubated for an additional period of 24 hours. A solution of 5 μl of WST-1 dye per well was added and plates were read after 4 hours at 440 and 600 nm using an ELISA plate reader. The absorbance at 440 minus that at 600 nm is directly proportion to the number of proliferating cells. All samples were measured in triplicate and results were expressed as an average of three determinations.

CaCo-2 cells [2] = assay: Induction of apoptosis, DNA fragmentation analysis, CaCo-2; assay type: cell-based, human; settings: 12 hours treatment
Protocol: T84, CaCo-2 and HUVEC cells, respectively, were grown in 100 mm dishes for 7-9 days, culture media for HUVEC was EGM-2 (Clonetics, BioWhitaker Co.), until they reached semi-confluency. Cell monolayers were then treated for 12 hours (CaCo-2 and T84) and 16 hours (HUVEC), respectively, at the indicated concentrations of N,N,-diethyl-8,8-dipropyl-2-azaspiro[4,5]decane-2-propanamine dimaleate (Compound 1) in culture media. Cells were collected by trypsinization and the apoptotic DNA was isolated from these cells following the instructions of the DNA fragmentation analysis kit (Boehringer Mannheim Corp., Indianapolis, Ind.). The apoptotic DNA was evaluated using 1.5% agarose gel electrophoresis followed by staining with ethidium bromide. M denotes the lane containing molecular weight markers of DNA.

HUVEC = HUVEC growth inhibition assay (crystal violet); assay type: cell-based; settings: Homo sapiens, 72 hours, read-out: IC50 Concentration, Growth Inhibition
Protocol: HUVEC (1.5×10^3) are plated in a 96-well plate in 100 μl of EBM-2 (Clonetic # CC3162). After 24 hours (day 0), a test solution of Compound 1 (100 μl) is added to each well at 2× the desired concentration (5-7 concentration levels) in EBM-2 medium. On day 0, one plate is stained with 0.5% crystal violet in 20% methanol for 10 minutes, rinsed with water, and air-dried. The remaining plates are incubated for 72 hours at 37° C. After 72 hours, plates are stained with 0.5% crystal violet in 20% methanol, rinsed with water and air-dried. The stain is eluted with 1:1 solution of ethanol: 0.1 M sodium citrate (including day 0 plate), and absorbance is measured at 540 nm with an ELISA reader (Dyriatech Laboratories). Day 0 absorbance is subtracted from the 72 hour plates and data is plotted as percentage of control proliferation (vehicle treated cells).

CCRF-CEM = assay: NCI in vitro SRB assay, Leukemia; assay type: cell-based; settings: for GI50 / CC50: Homo sapiens
Protocol: (§1) An in vitro assay which tested the ability of N,N,-diethyl-8,8-dipropyl-2-azaspiro[4,5]decane-2-propanamine dimaleate (Compound 1) to inhibit the growth of known cancer cell lines was performed by the National Cancer Institute in accordance with standard procedures. See: Lin, Z. X., Hoult, J. R., and Raman, A. Sulphorhodamine B assay for measuring proliferation of a pigmented melanocyte cell line and its application to the evaluation of crude drugs used in the treatment of vitiligo. J Ethnopharmacol. 66: 141-150, 1999. Briefly, selected tumor cell lines were cultured in media containing five different concentrations of Compound 1. After 48 hours of continuous exposure, a sulforhodamine B (SRB) assay was used to estimate cell viability or growth via optical measurements.
(§2) From the measurements, the following values were determined: 1) the concentration of Compound 1 at which a tumor cell growth inhibition of 50% (relative to control) occurs (GI50), 2) the concentration of Compound 1 at which no growth occurs (total growth inhibition, TGI), and 3) the concentration of Compound 1 at which the […] (LC 50). […] FIG. 6 illustrates, graphically, tumor cell growth as a function of Compound 1 concentration of the scanned tumor cell lines.

RPMI-8226 = assay: NCI in vitro SRB assay, Leukemia; assay type: cell-based; settings: for CC50 / GI50: Homo sapiens
Protocol: as §1, §2

OVCAR-4 = assay: NCI in vitro SRB assay, Ovarian Cancer; assay type: cell-based
Protocol: as §1, §2

MDA-MB-231/ATCC = assay: NCI in vitro SRB assay, Breast Cancer; assay type: cell-based; settings: for GI50 / CC50: Homo sapiens
Protocol: as §1, §2

[3] = RPMI-8226, Log10 conc -4.0 Moles/L
[4] = RPMI-8226, Log10 conc -5.0 Moles/L
[5] = RPMI-8226, Log10 conc -6.0 Moles/L
[6] = RPMI-8226, Log10 conc -7.0 Moles/L
[7] = RPMI-8226, Log10 conc -8.0 Moles/L
[8] = MDA-MB-231/ATCC, Log10 conc -4.0 Moles/L
[9] = MDA-MB-231/ATCC, Log10 conc -5.0 Moles/L
[10] = MDA-MB-231/ATCC, Log10 conc -6.0 Moles/L
[11] = MDA-MB-231/ATCC, Log10 conc -7.0 Moles/L
[12] = MDA-MB-231/ATCC, Log10 conc -8.0 Moles/L

With CCCC1(CCC)CCC2(CCN(CCCN(CC)CC)C2)CC1.O=C(O)/C=C\C(=O)O.O=C(O)/C=C\C(=O)O [Compound 1, N,N,-diethyl-8,8-dipropyl-2-azaspiro[4,5]decane-2-propanamine dimaleate] the IC50 (CaCo-2 cells [1]) was 625 to 1250 nM, the “DNA ladder formation (apoptosis)” value (CaCo-2 cells [2]) was “formation of DNA laddering in a dose-dependent manner” and the IC50 (HUVEC) was 2050 nM. The “Log10 TGI” value (CCRF-CEM) was over −4.00, the TGI (CCRF-CEM) was over 100000 nM and the GI50 (CCRF-CEM; read-out: GI50) was 1090 nM. The CC50 (CCRF-CEM; read-out: LC50) was over 100000 nM, the GI50 (CCRF-CEM; read-out: Log10 GI50 (converted)) was 1100 nM and the CC50 (CCRF-CEM; read-out: Log10 LC50 (converted)) was over 100000 nM. The “Mean Optical Densities” value (CCRF-CEM; Log10 conc -4.0 Moles/L) was 0.115, the “Percent Growth” value (CCRF-CEM; Log10 conc -4.0 Moles/L) was 6% and the “Mean Optical Densities” value (CCRF-CEM; Log10 conc -5.0 Moles/L) was 0.158. The “Percent Growth” value (CCRF-CEM; Log10 conc -5.0 Moles/L) was 13%, the “Mean Optical Densities” value (CCRF-CEM; Log10 conc -6.0 Moles/L) was 0.409 and the “Percent Growth” value (CCRF-CEM; Log10 conc -6.0 Moles/L) was 51%. For the same molecule, the “Mean Optical Densities” value (CCRF-CEM; Log10 conc -7.0 Moles/L) was 0.597, the “Percent Growth” value (CCRF-CEM; Log10 conc -7.0 Moles/L) was 81% and the “Mean Optical Densities” value (CCRF-CEM; Log10 conc -8.0 Moles/L) was 0.611. For the same molecule, the “Percent Growth” value (CCRF-CEM; Log10 conc -8.0 Moles/L) was 83%, the CC50 (RPMI-8226; RPMI-8226, read-out: LC50) was over 100000 nM and the CC50 (RPMI-8226; RPMI-8226, read-out: Log10 LC50 (converted)) was over 100000 nM. The GI50 (RPMI-8226; RPMI-8226, read-out: GI50) was 283 nM, the GI50 (RPMI-8226; RPMI-8226, read-out: Log10 GI50 (converted)) was 282 nM and the “Log10 TGI” value (RPMI-8226; RPMI-8226) was −4.53. For the same molecule, the TGI (RPMI-8226; RPMI-8226) was 29800 nM, the “Mean Optical Densities” value (RPMI-8226; [3]) was 0.185 and the “Percent Growth” value (RPMI-8226; [3]) was −3%. The “Mean Optical Densities” value (RPMI-8226; [4]) was 0.218, the “Percent Growth” value (RPMI-8226; [4]) was 3% and the “Mean Optical Densities” value (RPMI-8226; [5]) was 0.371. For the same molecule, the “Percent Growth” value (RPMI-8226; [5]) was 21%, the “Mean Optical Densities” value (RPMI-8226; [6]) was 0.843 and the “Percent Growth” value (RPMI-8226; [6]) was 74%. The “Mean Optical Densities” value (RPMI-8226; [7]) was 0.918, the “Percent Growth” value (RPMI-8226; [7]) was 83% and the CC50 (OVCAR-4; Homo sapiens, OVCAR-4, read-out: Log10 LC50 (converted)) was 6610 nM. The GI50 (OVCAR-4; Homo sapiens, OVCAR-4, read-out: Log10 GI50 (converted)) was 1620 nM, the “Log10 TGI” value (OVCAR-4; OVCAR-4) was −5.49 and the GI50 (MDA-MB-231/ATCC; MDA-MB-231, MDA-MB-231/ATCC, read-out: GI50) was 1090 nM. It also gave a GI50 (MDA-MB-231/ATCC; MDA-MB-231, line printed "231/ATCC" (second line of the wrapped name), read-out: Log10 GI50 (converted)) of 1860 nM, a GI50 (MDA-MB-231/ATCC; MDA-MB-231, line printed "MDA-MB-" (first line of MDA-MB-231/ATCC), read-out: Log10 GI50 (converted)) of 1100 nM and a CC50 (MDA-MB-231/ATCC; MDA-MB-231, read-out: LC50, MDA-MB-231/ATCC) of 5180 nM. The CC50 (MDA-MB-231/ATCC; MDA-MB-231, read-out: Log10 LC50, line printed "231/ATCC" (second line of the wrapped name) (converted)) was 8510 nM, the CC50 (MDA-MB-231/ATCC; MDA-MB-231, read-out: Log10 LC50, line printed "MDA-MB-" (first line of MDA-MB-231/ATCC) (converted)) was 5130 nM and the TGI (MDA-MB-231/ATCC; MDA-MB-231/ATCC) was 2370 nM. The “Mean Optical Densities” value (MDA-MB-231/ATCC; [8]) was 0.038, the “Percent Growth” value (MDA-MB-231/ATCC; [8]) was −94% and the “Mean Optical Densities” value (MDA-MB-231/ATCC; [9]) was 0.053. The “Percent Growth” value (MDA-MB-231/ATCC; [9]) was −92%, the “Mean Optical Densities” value (MDA-MB-231/ATCC; [10]) was 0.839 and the “Percent Growth” value (MDA-MB-231/ATCC; [10]) was 55%. The “Mean Optical Densities” value (MDA-MB-231/ATCC; [11]) was 0.863, the “Percent Growth” value (MDA-MB-231/ATCC; [11]) was 63% and the “Mean Optical Densities” value (MDA-MB-231/ATCC; [12]) was 0.897. For the same molecule, the “Percent Growth” value (MDA-MB-231/ATCC; [12]) was 75%, the “Log10 TGI” value (MDA-MB-231/ATCC; line printed "231/ATCC" (second line of the wrapped name)) was −5.40 and the “Log10 TGI” value (MDA-MB-231/ATCC; line printed "MDA-MB-" (first line of MDA-MB-231/ATCC)) was −5.63.
